# Measurements from US4749798A, “Fluoro coumarins as antilymphoedema agents” (priority 1984, dated 1988).
# Like-named read-outs stand apart in the source and are kept apart here.
# What was measured:
# [1] = tested on: carrageenan induced edema of the rats hind paw; assay: carrageenan induced edema of the rat hind paw; assay type: in vivo; details: for activity relative to coumarin: "at least 1.5-2.5 times more active than coumarin"; for reduction of carrageenan induced edema: at all the times (1; 3; 4 and 5 h)
# Source text: 6-fluoro coumarin and the compounds of the invention are also effective in the management of the acute inflammation.
# The carrageenan edema test proposed by Winter C. A., Risley A., Noss G. W. (Proc. Soc. Exp. Biol., 101, 544, 1962) was used.
# The compounds, administered i.p. 30' before the carrageenan as suspension in 1% aqueous carboxymethylcellulose homogeneized by ultrasounds, were compared with coumarin at different dose-levels on 6 animal groups. The percent reduction of the rat hind paw edema was evaluated at different times.
# [2] = tested on: burning induced oedema of hind paws; assay: burning induced oedema test; assay type: in vivo, Sprague-Dawley male rats; details: for activity relative to 6-fluoro coumarin (equiactive): burning induced oedema; for % inhibition / Paw volume, DV: 12 h
# Experimental: Reduction of the burning induced oedema test has been also used to evidentiate the antiinflammatory activity and the proteolytic mechanism of action of the compounds of the invention. 18 hours-fasted Sprague-Dawley male rats, body weight: 170-220 g, are used in this testing procedure. The animals are divided into five animal groups and the volume (in ml) of the posterior hind paws is measured before these paws are burnt by immersion for 22 seconds in 55° C. heated water. 15 minutes after burning, the animals are treated, by oral route, with different dosages of the investigated compounds and placebo. The volume of paws is measured 6, 12 and 18 hours after burning and the increased volume of the paws is evaluated.
# [3] = tested on: blood-dot area in right ear; assay: re-absorption of citrated blood injected in the rabbit ear (blood-dot area); assay type: in vivo, New Zealand rabbits; details: oral, placebo 20.3
# Experimental: Finally, the compounds of the invention are able to induce re-absorption of the total citrated blood when blood is injected in the right ear of New Zealand rabbits. 12 hours after blood inoculation into ear, the animal were randomized and treated with scalar doses of the investigated compounds administered for 4 days by oral route. The blood-dot areas are evaluated and compared with the areas of the control animals treated with placebo only. In table 5 are reported some experimental results.
# [4] = tested on: mouse peritoneal macrophages; assay: proteolysis by mouse peritoneal macrophages; details: for Potency ratio in the proteolytic test: 50 mg/kg i.p. in sesame oil, 10 replication, coumarin = 1; for Mean ICA-soluble fragm. (24 h-0 h) x 10^6 cell: 10 mice; for minimal effective dose: Mus musculus, Peritoneal macrophage, ip
# Source text: Ability of the 6-fluoro coumarin itself, and the other compounds of the invention, to increase proteolysis by mouse peritoneal macrophages is shown by using the testing procedure reported by T. Bolton and J. R. Casley-Smith, Experimentia, 31, 275 (1975).
# Due to the great standard error, many replications are necessary in order to obtain reliable dose-response curves.
# dog liver microsomes = assay: incubation of labelled C^14-6 fluoro coumarin with dog liver microsomes; assay type: in vitro ADME; details: C^14-labelled
# Experimental: Using the method reported by T. C. Butler et al. (Arch. Intern. Pharmacod. Ther., 228, 4 (1977)), labelled C^14 -6 fluoro coumarin was incubated with dog liver microsomes.
# [5] = tested on: S-typhimurium TA 1535, TA 1537, TA 1538, TA 98 and TA 100; assay: Ames test; assay type: cell-based
# S. Pombae = assay: forward mutation in S. Pombae; assay type: cell-based
# coagulation factors = assay: coagulation parameters (DPTT, Hepato quick, clotting time); assay type: in vivo; details: oral, 2 consecutive days, equimolecular doses
# lymphoedemas = assay: preliminary experiments in humans with primary and secondary lymphoedemas; assay type: in vivo; details: capsules of 50 mg
# Experimental: So, a very restricted number of selected male and female patients, affected by primary and secondary lymphoedemas, with intact renal and hepatic functions, was treated with the compounds of the invention, particularly with 6-fluoro coumarin.
# In the absence of any other therapeutic treatment, the selected schedule of treatment foresees administration of capsules, many times pro die.
# The diagnostic parameters investigated are: general and gastric clinical tolerability; number of red blood cell, leukocites, neutrophiles and platelets; haemoglobin concentration, γ-glutamyl transpeptidase; serum creatinine and volume of edema.
# coagulation = details: Schofield; Feuer et al.; cited from earlier work
structure (smiles),measurement,setting,value
"O=c1oc2ccc(F)cc2cc1Br [3-Br--6-fluoro, 6-fluoro-3-bromo-2H-1-benzopyran-2-one]",activity relative to coumarin,[1],1.5-2.5 times
same,reduction of carrageenan induced edema,[1],reduce carrageenan induced edema of the rats hind paw at all the times
same,activity relative to 6-fluoro coumarin (equiactive),[2],0.85-1.5 times
same,% reduction of blood-dot area after 4 days,[3]; 50 mg/kg pro die,69%
same,Potency ratio in the proteolytic test,[4],1.75
"O=c1oc2ccc(F)cc2cc1Cl [3-Cl--6-fluoro, 6-fluoro-3-chloro-2H-1-benzopyran-2-one]",Potency ratio in the proteolytic test,[4],1.4
"Cc1cc(=O)oc2ccc(F)cc12 [4-methyl-6-F, 6-fluoro-4-methyl-2H-1-benzopyran-2-one]",activity relative to coumarin,[1],1.5-2.5 times
same,reduction of carrageenan induced edema,[1],reduce carrageenan induced edema of the rats hind paw at all the times
same,activity relative to 6-fluoro coumarin (equiactive),[2],0.85-1.5 times
same,% reduction of blood-dot area after 4 days,[3]; 50 mg/kg pro die,65%
same,Potency ratio in the proteolytic test,[4],1.78
"O=c1ccc2cc(F)cc(F)c2o1 [6,8-difluoro, 6,8-difluoro-2H-1-benzopyran-2-one]",Potency ratio in the proteolytic test,[4],1.45
"O=c1ccc2cc(F)ccc2o1 [6-fluoro coumarin, 6-fluoro-2H-1-benzopyran-2-one]",metabolism by cytochromes,dog liver microsomes,not metabolized by cytochromes
same,recovery of unchanged compound,dog liver microsomes,80%
same,mutagenic property in the Ames test,[5],no mutagenic property is evident
same,effects in forward mutation test,S. Pombae,No kinds of effects are noticed
same,activity relative to coumarin,[1],1.5-2.5 times
same,reduction of carrageenan induced edema,[1],reduce carrageenan induced edema of the rats hind paw at all the times
same,% inhibition,[2]; 12.5 mg/kg oral,no sign
same,"Paw volume, DV",[2]; 12.5 mg/kg oral,0.86 mL
same,"Paw volume, 12 h value","[2]; 12.5 mg/kg oral, basal 1.348",2.207 mL
same,% inhibition,[2]; 25.0 mg/kg oral,37%
same,"Paw volume, DV",[2]; 25.0 mg/kg oral,0.56 mL
same,"Paw volume, 12 h value","[2]; 25.0 mg/kg oral, basal 1.504",2.060 mL
same,% inhibition,[2]; 50.0 mg/kg oral,67%
same,"Paw volume, DV",[2]; 50.0 mg/kg oral,0.29 mL
same,"Paw volume, 12 h value","[2]; 50.0 mg/kg oral, basal 1.464",1.760 mL
same,% inhibition,[2]; 1000.0 mg/kg oral,71%
same,"Paw volume, DV",[2]; 1000.0 mg/kg oral,0.26 mL
same,"Paw volume, 12 h value","[2]; 1000.0 mg/kg oral, basal 1.416",1.676 mL
same,% reduction of blood-dot area after 4 days,[3]; 25 mg/kg pro die,64.13%
same,% reduction of blood-dot area after 4 days,[3]; 50 mg/kg pro die,92%
same,effect on DPTT,coagulation factors,not able to modify
same,effect on Hepato quick,coagulation factors,not able to modify
same,effect on clotting time,coagulation factors,not able to modify
same,tolerability,"lymphoedemas; 10 treated patients, all dosages investigated",excellent
same,patients with significant reduction of the oedema volume,lymphoedemas; of 10 treated patients,4 patients
same,effects in mitotic genic conversion test,S. cerevisiae,No kinds of effects are noticed
same,effects in gene mutation test,somatic mammalian cells,No kinds of effects are noticed
same,Significance of difference from control,[4]; 3.12 mg/kg i.p.,NS (p > 0.05)
same,Mean ICA-soluble fragm. (24 h-0 h) x 10^6 cell,[4]; 3.12 mg/kg i.p.,0.22 mM glycin
same,Significance of difference from control,[4]; 6.25 mg/kg i.p.,NS (p > 0.05)
same,Mean ICA-soluble fragm. (24 h-0 h) x 10^6 cell,[4]; 6.25 mg/kg i.p.,0.19 mM glycin
same,Significance of difference from control,[4]; 12.5 mg/kg i.p.,* (0.05 > p > 0.01)
same,Mean ICA-soluble fragm. (24 h-0 h) x 10^6 cell,[4]; 12.5 mg/kg i.p.,0.29 mM glycin
same,Mean ICA-soluble fragm. (24 h-0 h) x 10^6 cell,[4]; 25 mg/kg i.p.,0.37 mM glycin
same,Significance of difference from control,[4]; 50 mg/kg i.p.,* (0.05 > p > 0.01)
same,Potency ratio in the proteolytic test,[4],11.5
same,Mean ICA-soluble fragm. (24 h-0 h) x 10^6 cell,[4]; 50 mg/kg i.p.,0.34 mM glycin
same,Mean ICA-soluble fragm. (24 h-0 h) x 10^6 cell,[4]; 100 mg/kg i.p.,0.40 mM glycin
same,minimal effective dose,[4]; read-out: dosage level with proteolysis significantly greater than the control,> 6.25 mg/kg
same,minimal effective dose,[4]; read-out: dose from which stimulation of protein digestion starts,12.5 mg/kg
same,increase in proteolysis,"[4]; at the higher doses, coumarin at similar doses",threefold
CC(C)OC1C=Cc2cc(F)ccc2O1 (centres unmarked) [6-fluoro-2.xi.-isopropoxy-2H-1-benzopyrane],activity relative to coumarin,[1],1.5-2.5 times
same,reduction of carrageenan induced edema,[1],reduce carrageenan induced edema of the rats hind paw at all the times
same,activity relative to 6-fluoro coumarin (equiactive),[2],0.85-1.5 times
same,Potency ratio in the proteolytic test,[4],1.61
COC1C=Cc2cc(F)ccc2O1 (centres unmarked) [6-fluoro-2.xi.-methoxy-2H-1-benzopyrane],% Reduction of the edema by carrageenan,"[1]; 0.76 mg/kg i.p., 3 h",58%
same,% Reduction of the edema by carrageenan,"[1]; 1.55 mg/kg i.p., 3 h",70%
same,% Reduction of the edema by carrageenan,"[1]; 3.12 mg/kg i.p., 3 h",79%
same,% Reduction of the edema by carrageenan,"[1]; 3.12 mg/kg i.p., 5 h",87%
same,% Reduction of the edema by carrageenan,"[1]; 6.25 mg/kg i.p., 3 h",84%
same,activity relative to coumarin,[1],1.5-2.5 times
same,reduction of carrageenan induced edema,[1],reduce carrageenan induced edema of the rats hind paw at all the times
same,activity relative to 6-fluoro coumarin (equiactive),[2],0.85-1.5 times
"OC1C=Cc2cc(F)ccc2O1 (centres unmarked) [6-fluoro-2H--1-benzopyran-2.zeta.-ol, 6-fluoro-2H-1-benzopyran-2.xi.-ol]",activity relative to coumarin,[1],1.5-2.5 times
same,reduction of carrageenan induced edema,[1],reduce carrageenan induced edema of the rats hind paw at all the times
same,% reduction of blood-dot area after 4 days,[3]; 40 mg/kg pro die,59%
same,Potency ratio in the proteolytic test,[4],1.45
OC1Oc2ccc(F)cc2C=C1Br (centres unmarked) [6-fluoro-3-bromo-2.xi.-hydroxy-2H-1-benzopyrane],% Reduction of the edema by carrageenan,"[1]; 0.76 mg/kg i.p., 3 h",65%
same,% Reduction of the edema by carrageenan,"[1]; 1.55 mg/kg i.p., 3 h",72%
same,% Reduction of the edema by carrageenan,"[1]; 3.12 mg/kg i.p., 3 h",88%
same,% Reduction of the edema by carrageenan,"[1]; 3.12 mg/kg i.p., 5 h",84%
same,% Reduction of the edema by carrageenan,"[1]; 6.25 mg/kg i.p., 3 h",87%
COC1Oc2ccc(F)cc2C=C1Br (centres unmarked) [6-fluoro-3-bromo-2.xi.-methoxy-2H-1-benzopyrane],activity relative to coumarin,[1],1.5-2.5 times
same,reduction of carrageenan induced edema,[1],reduce carrageenan induced edema of the rats hind paw at all the times
same,activity relative to 6-fluoro coumarin (equiactive),[2],0.85-1.5 times
"O=c1oc2ccccc2c(O)c1Cc1c(O)c2ccccc2oc1=O [dicoumarol, reference compound]",effect on DPTT,coagulation factors,very strong effect
same,effect on Hepato quick,coagulation factors,very strong effect
same,anticoagulant activity,coagulation,anticoagulant activites
